Results reported in patent publication US20240246931A1, “COMPOUNDS AS PD1/PD-L1 INHIBITORS AND METHODS THEREOF” (JUBILANT PRODEL LLC, priority 2021, published 2024).

Target: T1, PD-1/PD-L1 interaction (Homo sapiens, UniProt Q9NZQ7)
T1 construct: purchased CisBio 63ADK000CPAPEG
Experiment: PD-1/PD-L1 HTRF binding assay (CisBio kit)
Details: HTRF PD1/PD-L1 inhibition assay
Method: PD-L1 Enzyme Assay: Homogenous Time-Resolved Fluorescence (HTRF) Binding Assay
All binding studies were performed using PD-1/PD-L1 Binding Assay Kit from CisBio (Catalog #63ADK000CPAPEG), according to the manufacturer's protocol. The interaction between Tag1-PD-1 and […] was detected by anti-Tag1-Eu^3+ (HTRF donor) and anti-Tag2-XL665 (HTRF acceptor). When the donor and acceptor antibodies were brought to close proximity due to PD-1 and PD-L1 binding, excitation of the donor antibody triggered fluorescent resonance energy transfer (FRET) towards the acceptor antibody, which in turn emitted specifically at 665 nm. This specific signal is positively proportional to PD-1/PD-L1 interaction. The compounds blocking PD-1/PD-L1 interaction will cause a reduction in HTRF signal. The necessary reagents were mixed in the following order: 2 μL compounds (or diluents buffer), 4 μL PD-L1 protein, 4 μL PD-1 protein. After an incubation of 15 minutes, 5 μL of anti-Tag1-Eu^3+ and 5 μL of anti-Tag2-XL665 were added. The plate was sealed and incubated at room temperature for 1 h. The fluorescence emission was read at two different wavelengths (665 nm and 620 nm) on a BMG PheraStar® multi-plate reader.
Results were calculated from the 665 nm and 620 nm fluorescence signal and expressed in HTRF ratio=(665 nm/620 nm)×10^4.
Compounds having IC50<100 nM are designated as “A”; 100-500 nM are designated as “B”; and >500 nM are designated as “C” respectively.

T1 sequence (Q9NZQ7 19-238 limits assumed): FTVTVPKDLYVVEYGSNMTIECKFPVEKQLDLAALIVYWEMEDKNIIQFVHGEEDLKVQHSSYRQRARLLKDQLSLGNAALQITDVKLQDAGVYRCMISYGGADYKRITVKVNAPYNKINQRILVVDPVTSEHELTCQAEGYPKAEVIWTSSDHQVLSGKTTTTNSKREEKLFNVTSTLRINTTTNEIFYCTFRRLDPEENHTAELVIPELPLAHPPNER

Compared with Cc1c(COc2cc(OCc3cncc(C#N)c3)c(CN3CC(F)(F)CCC3CO)c3c2CCC3)cccc1-c1ccccc1 (stereo not shown) [Example 12, 5-(((4-((5,5-difluoro-2-(hydroxymethyl)piperidin-1-yl)methyl)-7-((2-methyl-[1,1′-biphenyl]-3-yl)methoxy)-2,3-dihydro-1H-inden-5-yl)oxy)methyl)nicotinonitrile], Cc1c(COc2cc(OCc3cncc(C#N)c3)c(CN3CCC[C@@H]3CO)c3c2CCC3)cccc1-c1ccccc1 [Example 19, (R)-5-(((4-((2-(hydroxymethyl)pyrrolidin-1-yl)methyl)-7-((2-methyl-[1,1′-biphenyl]-3-yl)methoxy)-2,3-dihydro-1H-inden-5-yl)oxy)methyl)nicotinonitrile] is lower in IC50: 100 to 500 nM for the first, < 100 nM for the second.

Cc1c(COc2cc(OCc3cncc(C#N)c3)c(CN3CCN(C)CC3CO)c3c2CCC3)cccc1-c1ccccc1 (stereo not shown) [Example 13, 5-(((4-((2-(hydroxymethyl)-4-methylpiperazin-1-yl)methyl)-7-((2-methyl-[1,1′-biphenyl]-3-yl)methoxy)-2,3-dihydro-1H-inden-5-yl)oxy)methyl)nicotinonitrile] and Cc1c(COc2cc(OCc3cncc(C#N)c3)c(CN3CCCCCC3CO)c3c2CCC3)cccc1-c1ccccc1 (stereo not shown) [Example 20, 5-(((4-((2-(hydroxymethyl)azepan-1-yl)methyl)-7-((2-methyl-[1,1′-biphenyl]-3-yl)methoxy)-2,3-dihydro-1H-inden-5-yl)oxy)methyl)nicotinonitrile] cannot be ordered by IC50: < 100 nM for the first, < 100 nM for the second.

Cc1c(COc2cc(OCc3cncc(C#N)c3)c(CN3CC(CO)C3)c3c2CCC3)cccc1-c1ccccc1 [Example 14, 5-(((4-((3-(hydroxymethyl)azetidin-1-yl)methyl)-7-((2-methyl-[1,1′-biphenyl]-3-yl)methoxy)-2,3-dihydro-1H-inden-5-yl)oxy)methyl)nicotinonitrile] and Cc1c(COc2cc(OCc3cncc(C#N)c3)c(CN3CC[C@@H](CO)C3)c3c2CCC3)cccc1-c1ccccc1 [Example 15, (R)-5-(((4-((3-(hydroxymethyl)pyrrolidin-1-yl)methyl)-7-((2-methyl-[1,1′-biphenyl]-3-yl)methoxy)-2,3-dihydro-1H-inden-5-yl)oxy)methyl)nicotinonitrile] cannot be ordered by IC50: < 100 nM for the first, < 100 nM for the second.

Cc1c(COc2cc(OCc3cncc(C#N)c3)c(CN3CCC[C@H](CO)C3)c3c2CCC3)cccc1-c1ccccc1 [Example 16, (S)-5-(((4-((3-(hydroxymethyl)piperidin-1-yl)methyl)-7-((2-methyl-[1,1′-biphenyl]-3-yl)methoxy)-2,3-dihydro-1H-inden-5-yl)oxy)methyl)nicotinonitrile] and Cc1c(COc2cc(OCc3cncc(C#N)c3)c(CN3CCC[C@@H](CO)C3)c3c2CCC3)cccc1-c1ccccc1 [Example 21, (R)-5-(((4-((3-(hydroxymethyl)piperidin-1-yl)methyl)-7-((2-methyl-[1,1′-biphenyl]-3-yl)methoxy)-2,3-dihydro-1H-inden-5-yl)oxy)methyl)nicotinonitrile 2,2,2-trifluoroacetate] cannot be ordered by IC50: < 100 nM for the first, < 100 nM for the second.

Cc1c(COc2cc(OCc3cncc(C#N)c3)c(CN3CCC(CO)CC3)c3c2CCC3)cccc1-c1ccccc1 [Example 17, 5-(((4-((4-(hydroxymethyl)piperidin-1-yl)methyl)-7-((2-methyl-[1,1′-biphenyl]-3-yl)methoxy)-2,3-dihydro-1H-inden-5-yl)oxy)methyl)nicotinonitrile] and Cc1c(COc2cc(OCc3cncc(C#N)c3)c(CN3CC[C@H](CO)C3)c3c2CCC3)cccc1-c1ccccc1 [Example 18, (S)-5-(((4-((3-(hydroxymethyl)pyrrolidin-1-yl)methyl)-7-((2-methyl-[1,1′-biphenyl]-3-yl)methoxy)-2,3-dihydro-1H-inden-5-yl)oxy)methyl)nicotinonitrile] cannot be ordered by IC50: < 100 nM for the first, < 100 nM for the second.
